Results from PubChem BioAssay AID493240 (Broad Institute, 2011).

What follows are compounds tested on SK-MEL-5 viability, ATP luminescence (CellTiter-Glo), 24 h (assay: cytotoxicity in parental SK-MEL-5 melanoma cells – cell-based, CellTiter-Glo, cherry-picked, set 3, orthogonal assay for MITF inhibitor project, dose response (AID 493240)).

Row | SMILES | AC50 [µM]
1 | COC1=C(Nc2ccccc2)C(=O)c2ccccc2C1=O | 5.11
2 | N=c1n(CC(=O)c2ccc(Br)cc2)c2ccccc2n1Cc1ccccc1 | 18.1
3 | CCCCN1C=CC(=C2C(=O)c3ccccc3C2=O)C=C1 | 19.9
4 | CCN1CCN(c2ccc(NC(=O)c3ccc([N+](=O)[O-])o3)cc2Cl)CC1 | 24.8
5 | COc1cccc2c1C(=O)C=C(C)C2=O | 18.8
6 | Cc1ccc(C(=O)N/N=C\c2ccc([N+](=O)[O-])s2)cn1 | 33.9
7 | CN1CCN(C2=C(NS(=O)(=O)c3ccccc3)C(=O)c3ccccc3C2=O)CC1 | 16.9
8 | N#CCc1ccc(NC(=O)/C=C/c2ccc([N+](=O)[O-])o2)cc1 | 31.2
9 | O=C1C(Cl)=C(N2CCN(c3ccccc3[N+](=O)[O-])CC2)C(=O)c2ccccc21 | 10.8
10 | Cc1cc(C(C)(C)C)cc(C)c1Cn1c2[n+](c3ccc(C(F)(F)F)cc31)CCCCC2 | 16
11 | COc1ccc(C(=O)/C=C/C(=O)N(CC(=O)NC2CCCCC2)Cc2cccs2)c(O)c1 | 20.5
12 | Oc1c(CN2CCCCC2)cc(COCc2ccccc2)c2cccnc12 | 16.9
13 | Nc1c2c(=O)oc(-c3ccccc3)cc2nn1-c1ccccc1 | 2.49
14 | CCN1c2ccccc2NC2N=C(OC)C(c3ccccc3)C21 (stereo not given) | 14
15 | COc1ccccc1NS(=O)(=O)c1cccc(C(=O)N/N=C/c2ccc([N+](=O)[O-])o2)c1 | 17.3
16 | Cc1ccccc1-c1nc(CN2CCC(C(=O)NCCCN3CCCC(C)C3)CC2)c(C)o1 (stereo not given) | 28.9
17 | O=C(/C=C/c1cccc([N+](=O)[O-])c1)c1cccs1 | 27.8
18 | Cc1cc(NC(=O)c2cncc(Br)c2)ccc1NC(=O)c1cc2ccccc2o1 | 21.3
19 | CCC(=O)N1CCN(c2ccc(NC(=O)c3ccc([N+](=O)[O-])o3)cc2Cl)CC1 | 24.8
20 | CC(=O)Nc1ccc(S(=O)(=O)NC2=C(N3CCN(C)CC3)C(=O)c3ccccc3C2=O)cc1 | 22.8
21 | CCOc1c(Br)cc(CNC2CCCCCCC2)cc1OC | 16.5
22 | COC1=C(Nc2ccc(O)cc2)C(=O)c2ccccc2C1=O | 8.43

Row | SMILES | AC50 [µM]
23 | Cc1ccc2nc(N(CCCN(C)C)C(=O)c3ccc4c(c3)CCCC4)sc2c1 | 17.7
24 | CC(C)(c1ccccc1)c1ccc(OCC(O)CNC2CCN(Cc3ccccc3)CC2)cc1 (stereo not given) | 19.9
25 | Cc1ccc(C(C)C)c(OCc2nn(CC(=O)c3ccc(Cl)cc3)c3[n+]2CCCCC3)c1 | 18.4
26 | CC(C)C(CCNC1CCN(C)CC1)c1ccc(Cl)cc1 (stereo not given) | 23.1
27 | COc1cc(CNC2CCCC2)cc(Cl)c1OCc1ccccc1Cl | 16.8
28 | COc1cccc(CNCCc2c[nH]c3ccccc23)c1OCc1ccccc1 | 16.8
29 | O=C(CCl)Nc1ccc(-c2ccccc2)cc1 | 21.9
30 | O=C1C=C(N(CCO)Cc2ccccc2)c2ccccc2C1=O | 13.3
31 | O=C1C(Cl)=C(Nc2ccccc2)C(=O)c2ccccc21 | 6.7
32 | Cc1ccc(NC2=C(Cl)C(=O)c3ccccc3C2=O)cc1 | 9.83
33 | C=CCNC1=C(Cl)C(=O)c2ccccc2C1=O | 7.68
34 | Cc1ccccc1OCc1n(CC(=O)OC2CC(C)CCC2C(C)C)c2ccccc2[n+]1C (stereo not given) | 15.8
35 | Cc1c(CCOC(=O)c2ccc(Cl)cc2Cl)sc[n+]1CC(=O)c1ccc(Br)cc1 | 28.8
36 | Cc1cc(C)c2nc(N3CCC(C(=O)NCCCN4CC(C)CC(C)C4)CC3)sc2c1 (stereo not given) | 18.3
37 | COc1ccc(-c2nn(-c3ccccc3)cc2/C=N/N=C(N)N)cc1OC | 18
38 | CC(C)(C)c1ccc(OCCn2ccccc2=O)cc1 | 28.7
39 | COc1ccc2[nH]cc(C(=O)CCl)c2c1 | 17.4
40 | CC(C)C1CC(CCNCc2ccc(N(C)C)cc2)(c2ccccc2)CCO1 (stereo not given) | 21.9
41 | COc1cc(NC(=O)c2ccc([N+](=O)[O-])o2)ccc1NC(=O)c1cccs1 | 20.1
42 | Cc1ccc(C(=O)N/C(=C\c2ccc(-c3ccc(Br)cc3)o2)C(=O)NCCCN(C)C)cc1 | 17.1
43 | O=C(CNc1cccc2ccccc12)N/N=C/c1ccc([N+](=O)[O-])o1 | 19.9
44 | O=C(Nc1ccc(S(=O)(=O)NC2=NCCCCC2)cc1)c1ccc([N+](=O)[O-])s1 | 23

Row | SMILES | AC50 [µM]
45 | Cc1[nH]c2ccccc2c1C(=O)CCl | 22.1
46 | Cc1nc2ccccc2n1/N=C/c1ccc([N+](=O)[O-])s1 | 7.45
47 | COc1ccc2oc(C(=O)Nc3ccc(S(=O)(=O)N(C)C4CCN(C)CC4)cc3)c(C)c2c1 | 17.5
48 | CC(C)n1cc(/C=C/c2cc[n+](C)cc2)c2ccccc21 | 23
49 | Cc1ccc(C#CC[N+]2(CC#Cc3ccc(C)cc3)CCCCC2)cc1 | 16
50 | CC(C)Oc1ccc(C(CCN)C2CCCCC2)cc1 (stereo not given) | 16.2
51 | CC(=O)N1CCc2c(sc(NC(=O)c3ccc([N+](=O)[O-])o3)c2C#N)C1 | 17.2
52 | COc1ccc(CCn2c(=S)[nH]c3cc(C(=O)NCc4ccco4)ccc3c2=O)cc1OC | 22.8
53 | CC(C)=NOc1cc(NC(=O)CCl)cc([N+](=O)[O-])c1 | 17.4
54 | CCn1c(/C=C/Nc2ccccc2)[n+](CC)c2cc(Cl)c(Cl)cc21 | 28.7
55 | Cc1cc(C)c[n+](C2=C([O-])c3ccccc3C(=O)/C2=N\S(=O)(=O)c2cccs2)c1 | 15.4
56 | Nc1c(N(CCC2=CCCCC2)C(=O)COc2ccc(F)cc2)c(=O)[nH]c(=O)n1Cc1ccccc1 | 10.9
57 | CCCCn1c(=N)n(CCOc2ccc(C)cc2)c2ccccc21 | 17.6
58 | Cn1cccc1C(=O)NC(=O)COC(=O)c1ccc(S(C)(=O)=O)c([N+](=O)[O-])c1 | 31.4
59 | CN(C)CCCN(C(=O)CCc1ccccc1)c1nc2ccc(Br)cc2s1 | 16.5
60 | CCS(=O)(=O)c1ccc(N=Nc2ccc(O)c3ncccc23)c(OC)c1 | 33.5
61 | CC1=CC2/C=C(\C)CCC(O)C(O)/C=C/C(=O)C23C(=O)NC(CC(C)C)C3C1C (stereo not given) | 15.9
62 | CCOc1ccc(-n2c(-c3ccc(Br)cc3)c[n+]3c2CCCCC3)cc1 | 20.5
63 | Nc1nc2ccccc2n1/N=C/c1ccc([N+](=O)[O-])s1 | 25.8
64 | Cc1ccc(NC(=O)c2ncn(CCCN[C@H](C)c3cccc4ccccc34)n2)cc1C | 25.8
65 | Cc1ccc(C)c(NC(=O)/C(C#N)=C/c2cn(CC(=O)NCc3ccco3)c3ccccc23)c1 | 15.2
66 | Cc1ccccc1-c1nc(-c2ccccn2)no1 | 20.7

Row | SMILES | AC50 [µM]
67 | CN(C)CCNC(=O)/C(=C/c1ccc(-c2ccc(Cl)cc2Cl)o1)NC(=O)c1ccccc1 | 19.4
68 | CCN(CC)CCNC(=O)c1ccc(NC(=O)c2cccc(S(=O)(=O)N3c4ccccc4CC3C)c2)cc1 (stereo not given) | 22.5
69 | OC(CNCC(c1ccc(Cl)cc1Cl)c1c[nH]c2ccccc12)c1ccccc1 (stereo not given) | 16.8
70 | COC(=O)C1=C(C)N(Cc2ccccc2)C(=NCc2ccccc2)N[C@H]1c1ccccc1 | 26.8
71 | O=c1c(Cl)c2oc3ccccc3nc-2c2ccccc12 | 5.67
72 | COc1ccc(C(=O)/C=C/C(=O)N(CC(=O)NC2CCCCC2)Cc2ccccc2)c(O)c1 | 12.9
73 | O=C(CCl)Nc1cccc(S(=O)(=O)N2CCCCCC2)c1 | 11.2
74 | Cn1c(SCC(=O)N/N=C/c2ccc([N+](=O)[O-])s2)nnc1-c1ccccc1 | 21.5
75 | Cc1ccc(Oc2c(C(N)=O)cc([N+](=O)[O-])cc2[N+](=O)[O-])cc1 | 21.8
76 | CN(C)S(=O)(=O)c1ccc(-c2csc(N/N=C/c3ccco3)n2)cc1 | 16.2
77 | COc1ccc(Br)cc1/C=C/C(=O)c1ccc(NC(C)=O)cc1 | 26.7
78 | O=C(C#Cc1ccccc1)c1cccc([N+](=O)[O-])c1 | 26.2
79 | COc1ccc(-c2cc(-c3ccccc3)[n+](C)c(-c3ccccc3)c2)cc1 | 21.2
80 | CC(=O)N(C)C1=C(N2CCOCC2)C(=O)c2ccccc2C1=O | 7.92
81 | CCCCCCCNC(=O)C1(CC2CC(c3ccc(Cl)cc3)=NO2)CCNCC1 (stereo not given) | 18.2
82 | CCOC(=O)CSC1=NC(=O)/C(=C/c2ccc(OC)cc2)S1 | 28.5
83 | CC1CC2(C)Oc3ccccc3CC2C(C)C1CNCCCN(C)C (stereo not given) | 16.2
84 | CC1=NNC(=O)/C1=C\c1cn(-c2ccccc2)nc1-c1ccc(F)cc1 | 15.5
85 | O=C(N/N=C/c1ccc([N+](=O)[O-])s1)C(O)c1ccccc1 (stereo not given) | 35.1
86 | O=C(Nc1ccc(N2CCCC2)c(Cl)c1)c1ccc([N+](=O)[O-])o1 | 29.9
87 | CCCN1CCC(NCc2cn(C)nc2-c2ccc(Oc3ccccc3)cc2)CC1 | 22.3
88 | O=C1c2cc(F)ccc2-n2c1nc1ccccc1c2=O | 5.5

Row | SMILES | AC50 [µM]
89 | CCN1CCN(c2ccc(S(=O)(=O)N3CCCCC3)cc2NC(=O)/C=C/c2cccc(OC)c2OC)CC1 | 24.7
90 | Cc1ccc(-n2cc(CNCCCn3cccn3)c(-c3cccc(C)c3)n2)cc1 | 20.1
91 | CCN(CC)CCC(=O)N1C/C(=C/c2ccccc2)C(=O)/C(=C\c2ccccc2)C1 | 24
92 | COc1ccc(C(CCNC(C)c2ccccc2)c2ccc(F)cc2)cc1 (stereo not given) | 17.6
93 | Cc1ccc2[nH]c(=O)c(CN(CCCN(C)C)C(=O)Nc3cccc(Cl)c3)cc2c1 | 24.3
94 | C=CCn1c(C)cc(C2=NNC(=NCC)SC2)c1C | 12.9
95 | CC1(C)Cc2ccccc2C2=NNC(=O)C2=N1 | 8.54
96 | CC1CCC/C=C/C(=O)c2c(O)cc(O)cc2CC(=O)O1 (stereo not given) | 31.7
97 | CCOC(=O)c1c(C)oc2c(F)c(F)c(F)c(F)c2c1=O | 22.7
98 | COc1cccc2sc(N(CCCN(C)C)C(=O)C(c3ccccc3)c3ccccc3)nc12 | 18.3
99 | c1ccc2cc3c(NCCN4CCOCC4)ccnc3cc2c1 | 3.68
100 | COc1cccc(/C=N/Nc2ccc(C(=O)O)cc2)c1O | 19.9
101 | CCN(CC)CCNC(=O)C1CCN(S(=O)(=O)c2c(C)noc2/C=C/c2ccccc2F)CC1 | 28.8
102 | COC(=O)c1ccc2c(c1O)C(=O)c1ccccc1C2=O | 3.74
103 | CCN(CC)CCn1nc2c3c(cccc3c1=O)-c1ccccc1-2 | 20.3
104 | CCN(CC)CCNC(=O)c1c(C)n(-c2ccccc2)c2cc(Br)c(OC)cc12 | 19.8
105 | CN(C)CCCNc1nc2sc3c(c2c(=O)n1CCc1ccccc1)CCCCC3 | 19.8
106 | Cc1ccc2sc(N(CCCN(C)C)C(=O)c3ccc(S(=O)(=O)N(C)C4CCCCC4)cc3)nc2c1C | 26.7
107 | Cn1nnnc1Sc1ncnc2scc(-c3ccc(C#N)cc3)c12 | 18.7
108 | CC(=O)Nc1sc(C)c(C)c1C(=O)OCC(=O)N(CC(C)C)c1c(N)n(Cc2ccccc2)c(=O)[nH]c1=O | 8.38
109 | CCOC(=O)CCc1ccc(NC(=O)/C=C/c2ccc([N+](=O)[O-])o2)cc1 | 28.4
110 | Cc1ccc2c(c1)Oc1ccc(NC(=O)CCl)cc1C(=O)N2 | 9.65
